Structures can show the parent of a compound that is named as a salt.
system: TT Cell; assay: Cell inhibitory activity test (CCK8); format: cell-based; details: Homo sapiens, TT, Table 3, 72 hours incubation
Description: Cell Inhibitory Activity Test
1. preparing 90 μl of cell suspension in a 96-well plate with 4000 cells/well. Pre-incubating the culture plate in an incubator for 24 hours (37° C., 5% CO2).
2. adding 10 μl of test compounds of different concentrations to each well of cells, and each compound has multiple wells.
3. incubating the culture plate in the incubator for 72 hours.
4. adding 10 μl of CCK8 solution to each well (be careful not to generate bubbles in the well, otherwise they would affect the reading of the OD value).
5. incubating the culture plate in the incubator for 1-2 hours.
6. measuring the absorbance at 450 nm with a microplate reader.
7. according to the compound concentration and absorbance value, GraphpadPrism software was used to calculate the IC50 of each compound.

Compound | IC50
CCN(CC)C(=O)N1CCN(c2ccc(-c3cc(-c4cnn(C)c4)cn4nc(N)c(C#N)c34)cn2)CC1 [APS016, 4-(5-(2-amino-3-cyano-6-(1-methyl-1H-pyrazol-4-yl)pyrazolo[1,5-a]pyridin-4-yl)pyridine-2-yl)-N,N-diethylpiperazine-1-carboxamide] | 31.1 nM
Cn1cc(-c2cc(-c3ccc(N4CCN(Cc5cncc(Cl)c5)CC4)nc3)c3c(C#N)c(N)nn3c2)cn1 [APS021] | 120 nM
COc1cccc(CN2CCN(c3ccc(-c4cc(-c5cnn(C)c5)cn5nc(N)c(C#N)c45)cn3)CC2)n1 [APS030, 2-amino-4-(6-(4-((6-methoxypyridin-2-yl)methyl)piperazin-1-yl)pyridin-3-yl)-6-(1-methyl-1H-pyrazol-4-yl)pyrazolo[1,5-a]pyridine-3-carbonitrile] | 57.6 nM
CN(C)c1ccc(CN2CCN(c3ccc(-c4cc(-c5cnn(C)c5)cn5nc(N)c(C#N)c45)cn3)CC2)cc1 [APS034, 2-amino-4-(6-(4-(4-(dimethylamino)benzyl)piperazin-1-yl)pyridin-3-yl)-6-(1-methyl-1H-pyrazole-4-yl)pyrazolo[1,5-a]pyridine-3-carbonitrile] | 32.8 nM
CN(C)c1ccc(CN2CCN(c3ccc(-c4cc(-c5cnn(C)c5)cn5nc(N)c(C#N)c45)cn3)CC2)cn1 [APS041, 2-amino-4-(6-(4-((6-(dimethylamino)pyridin-3-yl)methyl)piperazin-1-yl)pyridin-3-yl)-6-(1-methyl-1H-pyrazol-4-yl)pyrazolo[1,5-a]pyridine-3-carbonitrile] | 32.8 nM
Cn1cc(-c2cc(-c3ccc(N4CCN(C(=O)c5c(F)cccc5F)CC4)nc3)c3c(C#N)c(N)nn3c2)cn1 [APS062, 2-amino-4-(6-(4-(2,6-difluorobenzoyl)piperazin-1-yl)pyridin-3-yl)-6-(1-methyl-1H-pyrazole-4-yl)pyrazolo[1,5-a]pyridine-3-carbonitrile] | 34.1 nM
Cn1cc(-c2cc(-c3ccc(N4CCN(Cc5cnccn5)CC4)nc3)c3c(C#N)c(N)nn3c2)cn1 [APS064, 2-amino-6-(1-methyl-1H-pyrazol-4-yl)-4-(6-(4-(pyrazin-2-yl-methyl)piperazin-1-yl)pyridine-3-yl)pyrazolo[1,5-a]pyridine-3-carbonitrile] | 150 nM
C[C@@H]1CN(c2ccc(-c3cc(-c4cnn(C)c4)cn4nc(N)c(C#N)c34)cn2)CCN1Cc1ccccn1 [APS073, (R)-2-amino-6-(1-methyl-1H-pyrazol-4-yl)-4-(6-(3-methyl-4-(pyridin-2-yl-methyl)piperazine-1-yl)pyridin-3-yl)pyrazolo[1,5-a]pyridine-3-carbonitrile] | 144 nM
Cn1cc(-c2cc(-c3ccc(N4CCN(Cc5ccccc5)CC4)nc3)c3c(C#N)c(N)nn3c2)cn1 [APS074, 2-amino-4-(6-(4-benzylpiperazin-1-yl)pyridin-3-yl)-6-(1-methyl-1H-pyrazol-4-yl)pyrazolo[1,5-a]pyridine-3-carbonitrile] | 25.2 nM
Cn1cc(-c2cc(-c3ccc(N4CCN(Cc5cccnc5)CC4)nc3)c3c(C#N)c(N)nn3c2)cn1 [APS075, 2-amino-6-(1-methyl-1H-pyrazol-4-yl)-4-(6-(4-(pyridin-3-yl-methyl)piperazin-1-yl)pyridine-3-yl)pyrazolo[1,5-a]pyridine-3-carbonitrile] | 122 nM
C[C@@H]1CN(Cc2ccccn2)CCN1c1ccc(-c2cc(-c3cnn(C)c3)cn3nc(N)c(C#N)c23)cn1 [APS076, (R)-2-amino-6-(1-methyl-1H-pyrazol-4-yl)-4-(6-(2-methyl-4-(pyridin-2-yl-methyl)piperazine-1-yl)pyridin-3-yl)pyrazolo[1,5-a]pyridine-3-carbonitrile] | 96.4 nM
Cn1cc(-c2cc(-c3ccc(N4CCN(Cc5ccc(F)cc5)CC4)nc3)c3c(C#N)c(N)nn3c2)cn1 [APS077, 2-amino-4-(6-(4-(4-fluorobenzyl)piperazin-1-yl)pyridin-3-yl)-6-(1-methyl-1H-pyrazol-4-yl) pyrazolo[1,5-a]pyridine-3-carbonitrile] | 58.3 nM
Cn1cc(-c2cc(-c3ccc(N4CCN(Cc5ccncc5)CC4)nc3)c3c(C#N)c(N)nn3c2)cn1 [APS078, 2-amino-6-(1-methyl-1H-pyrazol-4-yl)-4-(6-(4-(pyridin-4-yl-methyl)piperazin-1-yl)pyridine-3-yl)pyrazolo[1,5-a]pyridine-3-carbonitrile] | 57.1 nM
Cn1cc(-c2cc(-c3ccc(N4CCN(Cc5ccc(F)c(F)c5)CC4)nc3)c3c(C#N)c(N)nn3c2)cn1 [APS079, 2-amino-4-(6-(4-(3,4-difluorobenzyl)piperazin-1-yl)pyridin-3-yl)-6-(1-methyl-1H-pyrazole-4-yl)pyrazolo[1,5-a]pyridine-3-carbonitrile] | 120 nM
COc1ccc(CN2CCN(c3ccc(-c4cc(-c5cnn(C)c5)cn5nc(F)c(C#N)c45)cn3)CC2)cn1 [APS084, 2-fluoro-4-(6-(4-((6-methoxypyridin-3-yl)methyl)piperazin-1-yl)pyridin-3-yl)-6-(1-methyl-1H-pyrazol-4-yl)pyrazolo[1,5-a]pyridine-3-carbonitrile] | 342 nM
COc1ccc(CN2C3CC2CN(c2cnc(-c4cc(OC[C@@H]5CNCCO5)cn5nc(F)c(C#N)c45)cn2)C3)cn1 [APS088, 2-fluoro-4-(5-(6-((6-methoxypyridin-3-yl)methyl)-3,6-diazabicyclo[3.1.1]heptan-3-yl)pyrazin-2-yl)-6-(((S)-morpholin-2-yl)methoxy)pyrazolo[1,5-a]pyridine-3-carbonitrile trifluoroacetate] | 265 nM
COc1ccc(CN2C3CC2CN(c2ccc(-c4cc(OCC(C)(C)OC)cn5nc(N)c(C#N)c45)cn2)C3)cn1 [APS110, 2-amino-6-(2-methoxy-2-methylpropoxy)-4-(6-(6-((6-methoxypyridin-3-yl)methyl)-3,6-diazabicyclo[3.1.1]heptan-3-yl)pyridin-3-yl)pyrazolo[1,5-a]pyridine-3-carbonitrile] | 198 nM
